The text below walks through data of patent publication US12410160B2 (Gilead Sciences, Inc., priority 2021, dated 2025).

The structures appear in SMILES notation.

One test concerns the target human KHK-C (Homo sapiens (Human), UniProt P50053). Put plainly: KHK Biochemical Assay (IC50), ADP-Glo, KHK-C. The following applies: average of at least two separate assays. Summed up:
(§1)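 His-tagged enzyme expressed in BL21 (DE3), Ni-NTA purified. Compounds, serially diluted 1:3 in DMSO, pre-incubated 30 min with enzyme in 50 mM Hepes pH 7.4, 140 mM KCl, 5 mM MgCl2, 0.01% Triton-X, then ATP and fructose added; 4 h at room temperature. ADP formation read by ADP-Glo luminescence.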
(ADP-Glo first removes unused ATP, then detects ADP through luciferase.)

A further test has as its target human KHK-A (Homo sapiens (Human), UniProt P50053). Put plainly: KHK Biochemical Assay (IC50), ADP-Glo, KHK-A. The following applies: average of at least two separate assays. The gist of the method: as §1

Sequence of human KHK-A (P50053 other isoform, or with tags, fused parts or gaps): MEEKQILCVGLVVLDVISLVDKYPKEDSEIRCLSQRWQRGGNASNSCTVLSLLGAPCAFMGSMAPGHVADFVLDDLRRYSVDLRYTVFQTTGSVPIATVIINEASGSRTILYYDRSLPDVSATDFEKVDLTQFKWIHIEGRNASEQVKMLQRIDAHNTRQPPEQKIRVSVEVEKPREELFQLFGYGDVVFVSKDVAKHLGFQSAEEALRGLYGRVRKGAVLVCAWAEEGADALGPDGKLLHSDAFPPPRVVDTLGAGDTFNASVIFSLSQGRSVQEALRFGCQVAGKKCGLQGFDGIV
Sequence of human KHK-C (P50053 whole entry): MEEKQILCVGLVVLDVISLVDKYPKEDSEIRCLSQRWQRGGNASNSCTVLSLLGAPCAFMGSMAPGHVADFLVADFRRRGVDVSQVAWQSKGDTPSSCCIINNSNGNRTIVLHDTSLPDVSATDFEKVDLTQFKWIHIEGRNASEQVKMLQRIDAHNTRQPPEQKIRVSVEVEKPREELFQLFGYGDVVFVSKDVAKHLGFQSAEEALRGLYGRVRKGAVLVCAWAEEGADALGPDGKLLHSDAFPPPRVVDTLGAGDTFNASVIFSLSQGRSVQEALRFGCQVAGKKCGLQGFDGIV

For `C[C@H]1CCN1c1nc2c(c(-c3cccc(C(N)=O)c3)n1)C1CC1C2` (stereo partly drawn) [Example 445, 3-(2-((S)-2-methylazetidin-1-yl)-4b,5,5a,6-tetrahydrocyclopropa[3,4]cyclopenta[1,2-d]pyrimidin-4-yl)benzamide], the concentration for half-maximal inhibition (IC50) against human KHK-C amounted to 306 nM; at human KHK-A, 130 nM.

Regarding `C[C@H]1[C@H](O)CN1c1nc(-c2ccc3c(c2)COC[C@H]3NS(C)(=O)=O)c2c(n1)C(F)(F)CC2` [Example 578, N—((S)-7-(7,7-difluoro-2-((2S,3R)-3-hydroxy-2-methylazetidin-1-yl)-6,7-dihydro-5H-cyclopenta[d]pyrimidin-4-yl)isochroman-4-yl)methanesulfonamide], the IC50 came out at 6.1 nM at human KHK-C and 22.5 nM against human KHK-A.

In the case of `C[C@H]1CCN1c1nc2c(c(-c3nc4ccc(C(N)=O)cc4s3)n1)CCC2` [Example 857, (S)-2-(2-(2-methylazetidin-1-yl)-6,7-dihydro-5H-cyclopenta[d]pyrimidin-4-yl)benzo[d]thiazole-6-carboxamide], the figures for the IC50 at human KHK-C (ADP-Glo) and on human KHK-A (ADP-Glo) were 149 nM and 141 nM, respectively.

As for `C[C@H]1CCN1c1nc2c(c(-c3cnn(C(F)F)c3)n1)CCC2` [Example 259, 4-[1-(difluoromethyl)pyrazol-4-yl]-2-[(2S)-2-methylazetidin-1-yl]-6,7-dihydro-5H-cyclopenta[d]pyrimidine], the IC50 amounted to 312 nM on human KHK-C (ADP-Glo) and 380 nM against human KHK-A (ADP-Glo).

As for `CNC(=O)c1ccc(-c2nc(N3CC[C@@H]3C)nc3c2CCC3)cc1` [Example 292, (S)—N-methyl-4-(2-(2-methylazetidin-1-yl)-6,7-dihydro-5H-cyclopenta[d]pyrimidin-4-yl)benzamide], the half-maximal inhibitory concentration (IC50) against human KHK-C (ADP-Glo) was found to be 89.1 nM; against human KHK-A (ADP-Glo) it was 65.7 nM.

As for `COc1cc(S(=N)(=O)c2cccc(-c3nc(N4CC[C@@H]4C)nc4c3CCC4)c2)ccc1C#N` (stereo partly drawn) [Example 848, 2-methoxy-4-(3-(2-((S)-2-methylazetidin-1-yl)-6,7-dihydro-5H-cyclopenta[d]pyrimidin-4-yl)phenylsulfonimidoyl)benzonitrile], the IC50 against human KHK-C (ADP-Glo) amounted to 186 nM; against human KHK-A (ADP-Glo), 249 nM.

For the compound `Cc1cnc(-c2nc(N3CC[C@@H]3C)nc3c2CCC3)s1` [Example 342, 5-methyl-2-[2-[(2S)-2-methylazetidin-1-yl]-6,7-dihydro-5H-cyclopenta[d]pyrimidin-4-yl]thiazole], the IC50 against human KHK-C (ADP-Glo) and at human KHK-A (ADP-Glo) was 107 nM throughout.

With `C[C@H]1CCN1c1nc2c(c(-c3ccc4c(c3)CC(F)C4NS(C)(=O)=O)n1)CCC2` (stereo partly drawn) [Example 885, N-(2-fluoro-5-(2-((S)-2-methylazetidin-1-yl)-6,7-dihydro-5H-cyclopenta[d]pyrimidin-4-yl)-2,3-dihydro-1H-inden-1-yl)methanesulfonamide], the IC50 at human KHK-C (ADP-Glo) came out at 26.1 nM; at human KHK-A (ADP-Glo), 150 nM.

As to `C[C@H]1CCN1c1nc2c(c(-c3cnn(CCC(=O)O)c3)n1)CCC2` [Example 25, (S)-3-(4-(2-(2-methylazetidin-1-yl)-6,7-dihydro-5H-cyclopenta[d]pyrimidin-4-yl)-1H-pyrazol-1-yl)propanoic acid], the IC50 came to 104 nM against human KHK-C (ADP-Glo) and 142 nM against human KHK-A (ADP-Glo).

As to `C[C@H]1CCN1c1nc2c(c(-c3ccc(C4(N5CCOCC5)CC4)cc3)n1)CCC2` [Example 304, (S)-4-(1-(4-(2-(2-methylazetidin-1-yl)-6,7-dihydro-5H-cyclopenta[d]pyrimidin-4-yl)phenyl)cyclopropyl)morpholine], the IC50 at human KHK-C (ADP-Glo) is 786 nM; against human KHK-A (ADP-Glo), 983 nM.

Consider `COC(=O)N[C@@H]1COc2cc(-c3nc(N4C[C@@H](O)[C@@H]4C)nc4c3CCC4(F)F)cc(OC)c21` (single isomer, unassigned) [Example 833], for which the values for the IC50 against human KHK-C (ADP-Glo) and at human KHK-A (ADP-Glo) were 4 nM and 99.8 nM, respectively.

Take `C[C@H]1CCN1c1nc2c(c(-c3cc4c(N)nn(C(=O)OC(C)(C)C)c4cn3)n1)CCC2` [Example 868, tert-butyl (S)-3-amino-5-(2-(2-methylazetidin-1-yl)-6,7-dihydro-5H-cyclopenta[d]pyrimidin-4-yl)-1H-pyrazolo[3,4-c]pyridine-1-carboxylate]: the IC50 was determined as 230 nM on human KHK-C (ADP-Glo) and 158 nM on human KHK-A (ADP-Glo).

Turning to `CS(=O)(=O)N[C@H]1COCc2cc(-c3nc(N4CC[C@@H]4C(F)(F)F)nc4c3CCC4(F)F)ccc21` [Example 581, N—((R)-7-(7,7-difluoro-2-((R)-2-(trifluoromethyl)azetidin-1-yl)-6,7-dihydro-5H-cyclopenta[d]pyrimidin-4-yl)isochroman-4-yl)methanesulfonamide], the IC50 on human KHK-C amounted to 0.8 nM; on human KHK-A it was 3.1 nM.

Take `C[C@H]1CCN1c1nc2c(c(-c3cc(NS(C)(=O)=O)cc(C(N)=O)c3)n1)CCC2` [Example 300, (S)-3-(2-(2-methylazetidin-1-yl)-6,7-dihydro-5H-cyclopenta[d]pyrimidin-4-yl)-5-(methylsulfonamido)benzamide]: the figures for the IC50 at human KHK-C (ADP-Glo) and on human KHK-A (ADP-Glo) were 33.6 nM and 42.8 nM, respectively.

Regarding `c1ccc(-c2nc(C3CCC3)nc3c2CCC3)cc1` [Example 97, 2-cyclobutyl-4-phenyl-6,7-dihydro-5H-cyclopenta[d]pyrimidine], the IC50 was 2230 nM on human KHK-C (ADP-Glo) and 937 nM against human KHK-A (ADP-Glo).

For `C[C@H]1[C@H](O)CN1c1nc(-c2ccc3c(c2)OC[C@]32COC(=O)N2)c2c(n1)C(F)(F)CC2` (single isomer, unassigned) [Example 482], the half-inhibitory concentration (IC50) against human KHK-C turned out to be 12 nM; at human KHK-A, 26.4 nM.

Regarding `C[C@@H](O)C(=O)NCc1cccc(-c2nc(N3CC[C@@H]3C)nc3c2CCC3)c1` [Example 229, (2R)-2-hydroxy-N-[[3-[2-[(2S)-2-methylazetidin-1-yl]-6,7-dihydro-5H-cyclopenta[d]pyrimidin-4-yl]phenyl]methyl]propanamide], the values for the 50% inhibitory concentration (IC50) on human KHK-C (ADP-Glo) and against human KHK-A (ADP-Glo) were 95.7 nM and 108 nM, respectively.

For the compound `C[C@H]1CCN1c1nc2c(c(-c3cccc(Sc4ccc(C#N)cc4)c3)n1)CCC2` [Example 863, (S)-4-((3-(2-(2-methylazetidin-1-yl)-6,7-dihydro-5H-cyclopenta[d]pyrimidin-4-yl)phenyl)thio)benzonitrile], the IC50 against human KHK-C (ADP-Glo) and at human KHK-A (ADP-Glo) was over 1000 nM in each case.

Regarding `C[C@H]1CCN1c1nc2c(c(-c3cccc(S(=N)(=O)c4ccc(C#N)cc4C4CC4)c3)n1)CCC2` (stereo partly shown) [Example 847], the 50% inhibitory concentration (IC50) against human KHK-C (ADP-Glo) amounted to 118 nM; against human KHK-A (ADP-Glo) it was 200 nM.

As to `C[C@H]1CCN1c1nc2c(c(-c3ccnnc3)n1)CCC2` [Example 343, 2-[(2S)-2-methylazetidin-1-yl]-4-pyridazin-4-yl-6,7-dihydro-5H-cyclopenta[d]pyrimidine], the figures for the IC50 against human KHK-C (ADP-Glo) and against human KHK-A (ADP-Glo) were 408 nM and 357 nM, respectively.

In the case of `CNS(=O)(=O)c1cccc(-c2nc(N3CC[C@@H]3C)nc3c2CCC3)c1` [Example 214, N-methyl-3-[2-[(2S)-2-methylazetidin-1-yl]-6,7-dihydro-5H-cyclopenta[d]pyrimidin-4-yl]benzenesulfonamide], the values for the IC50 against human KHK-C (ADP-Glo) and against human KHK-A (ADP-Glo) were 37.7 nM and 37.5 nM, respectively.

As to `C[C@H]1CCN1c1nc2c(c(-c3cc(C(N)=O)cc([N+](=O)[O-])c3)n1)CCC2` [Example 298, (S)-3-(2-(2-methylazetidin-1-yl)-6,7-dihydro-5H-cyclopenta[d]pyrimidin-4-yl)-5-nitrobenzamide], the IC50 against human KHK-C (ADP-Glo) came out at 247 nM; against human KHK-A (ADP-Glo), 374 nM.

As to `C[C@H]1CCN1c1nc(-c2ccccc2)c2c(n1)[C@H]1C[C@H]1C2` (single isomer, unassigned) [Example 334], the values for the IC50 on human KHK-C (ADP-Glo) and against human KHK-A (ADP-Glo) were 9700 nM and 9270 nM, respectively.

Broadly, the IC50 is the concentration at which inhibition is half-maximal. Lower therefore signals greater potency in that assay.
